Measured values taken from PubChem BioAssay (NCI).
Several values for one entry are separate records, joined by “and”; a condition that tells them apart may be missing. Identical values can stand only once.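 Each compound was tested at five concentrations against cells in 96-well plates for 48 hours. The concentration for 50% growth inhibition is given as GI50. TGI is the concentration that stops growth completely.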

Columns and labels:
Experiment in all cases: growth of human tumour cells (NCI), 48 h
T-47D breast = system: T-47D breast
HL-60(TB) leukemia = system: HL-60(TB) leukemia
HS 578T breast = system: HS 578T breast
MALME-3M melanoma = system: MALME-3M melanoma
PC-3 prostate = system: PC-3 prostate
LOX IMVI melanoma = system: LOX IMVI melanoma
SK-MEL-28 melanoma = system: SK-MEL-28 melanoma
SF-539 CNS = system: SF-539 CNS
DU-145 prostate = system: DU-145 prostate
MDA-MB-435 = system: MDA-MB-435

CN1CCN(c2ccc3nc(-c4ccc(OCCCN5C(=O)c6cccc7cccc(c67)C5=O)cc4)[nH]c3c2)CC1
GI50 (T-47D breast): 4800 nM
TGI (T-47D breast): 34.3 µM
GI50 (HL-60(TB) leukemia): 3130 nM
TGI (HL-60(TB) leukemia): 7.41 µM
GI50 (HS 578T breast): 2110 nM
TGI (HS 578T breast): 4.6 µM
GI50 (MALME-3M melanoma): 4430 nM
TGI (MALME-3M melanoma): > 30.8 µM
GI50 (PC-3 prostate): 2040 nM
TGI (PC-3 prostate): 4.95 µM

Cc1c2cc[n+](C)cc2c(COC2OC(CO)C(O)C2O)c2c3ccccc3n(C)c12 (configuration not stated)
TGI (LOX IMVI melanoma): > 100 µM
TGI (HL-60(TB) leukemia): > 100 µM
TGI (MALME-3M melanoma): 98.4 µM
TGI (SK-MEL-28 melanoma): > 100 µM
TGI (SF-539 CNS): > 100 µM

NC(=O)c1cc2ccccc2c(N=Nc2ccccc2)c1O
TGI (DU-145 prostate): > 100 µM
TGI (MDA-MB-435): > 100 µM
TGI (T-47D breast): > 100 µM
TGI (LOX IMVI melanoma): > 100 µM
TGI (HS 578T breast): > 100 µM
TGI (MALME-3M melanoma): > 100 µM
TGI (SK-MEL-28 melanoma): > 100 µM
TGI (PC-3 prostate): > 100 µM

CC(=O)OC1CC2(O)C(CCC3(C)C(c4ccc(=O)oc4)CCC32O)C2(C)CCC(O)C=C12 (configuration not stated)
GI50 (LOX IMVI melanoma): 37.5 nM
TGI (LOX IMVI melanoma): 0.126 µM and 0.0573 µM
GI50 (HL-60(TB) leukemia): 37.5 nM
TGI (HL-60(TB) leukemia): 0.0144 µM and 0.071 µM
GI50 (MALME-3M melanoma): 11.2 nM
TGI (MALME-3M melanoma): 0.0469 µM
TGI (SK-MEL-28 melanoma): 0.289 µM and 0.171 µM
GI50 (SF-539 CNS): 37.5 nM
TGI (SF-539 CNS): 0.0383 µM and 0.0414 µM

CCC1=C(C)C2=NC1=CC1=NC(=C(CC)/C1=C/O)C=C1N=C3C(=C1C)C(=O)C(C(=O)OC)C3=C1NC(=C2)C(C)C1CCC(=O)OC (configuration not stated)
TGI (DU-145 prostate): > 100 µM
TGI (MDA-MB-435): > 100 µM
TGI (T-47D breast): > 100 µM
TGI (LOX IMVI melanoma): > 100 µM
TGI (HL-60(TB) leukemia): > 100 µM
TGI (HS 578T breast): > 100 µM
TGI (MALME-3M melanoma): > 100 µM
TGI (SK-MEL-28 melanoma): > 100 µM
TGI (SF-539 CNS): > 100 µM
TGI (PC-3 prostate): > 100 µM

COc1cccc2c1C(=O)c1c(O)c3c(c(O)c1C2=O)C[C@@](O)(C(C)=O)C[C@@H]3OC1CC(N)C(O)C(C)O1 (some centres not stated)
GI50 (MDA-MB-435): 87.7 nM
GI50 (T-47D breast): < 17.6 nM

CC(=O)O[C@H]1C(=O)[C@]2(C)[C@@H](OC(=O)OCC(O)CO)C[C@H]3OC[C@@]3(OC(C)=O)[C@H]2[C@H](OC(=O)c2ccccc2)[C@]2(O)C[C@H](OC(=O)[C@H](O)[C@@H](NC(=O)c3ccccc3)c3ccccc3)C(C)=C1C2(C)C (some centres not stated)
TGI (LOX IMVI melanoma): 25 µM
TGI (HS 578T breast): < 0.01 µM
TGI (SK-MEL-28 melanoma): 39.1 µM
TGI (SF-539 CNS): < 0.01 µM
TGI (PC-3 prostate): > 70.8 µM

CCP(=O)(CC)C(Cl)(Cl)C(=O)NC
TGI (DU-145 prostate): > 100 µM
TGI (MDA-MB-435): > 100 µM
TGI (T-47D breast): > 100 µM
TGI (LOX IMVI melanoma): > 100 µM
TGI (HL-60(TB) leukemia): > 100 µM
TGI (HS 578T breast): > 100 µM
TGI (SK-MEL-28 melanoma): > 100 µM
TGI (PC-3 prostate): > 100 µM

O=c1c(-c2ccccc2)c[nH]c2cc([N+](=O)[O-])c(/C(Cl)=C/c3ccccc3)cc12
TGI (LOX IMVI melanoma): > 22.5 µM
TGI (HL-60(TB) leukemia): 31.6 µM
TGI (SK-MEL-28 melanoma): > 55.1 µM
TGI (SF-539 CNS): 27.7 µM

Cc1ccc(S(=O)(=O)OC2CN3CCC2CC3)cc1 (configuration not stated)
TGI (DU-145 prostate): > 100 µM
TGI (MDA-MB-435): > 100 µM
TGI (T-47D breast): > 100 µM
TGI (LOX IMVI melanoma): > 100 µM
TGI (HL-60(TB) leukemia): > 100 µM
TGI (HS 578T breast): > 100 µM
TGI (MALME-3M melanoma): > 100 µM
TGI (SK-MEL-28 melanoma): > 100 µM
TGI (SF-539 CNS): > 100 µM
TGI (PC-3 prostate): > 100 µM

CC(C)(C)CC(C)(C)Cc1ccc(OCCOCC[N+](C)(C)Cc2ccccc2)cc1
GI50 (DU-145 prostate): 3680 nM
TGI (DU-145 prostate): 13.8 µM
GI50 (MDA-MB-435): 1330 nM
TGI (MDA-MB-435): 2.66 µM
GI50 (T-47D breast): 1410 nM
TGI (T-47D breast): 3.94 µM
GI50 (HL-60(TB) leukemia): 365 nM
TGI (HL-60(TB) leukemia): 1.93 µM
GI50 (HS 578T breast): 2030 nM
TGI (HS 578T breast): 4.75 µM
GI50 (SK-MEL-28 melanoma): 1560 nM
TGI (SK-MEL-28 melanoma): 3.08 µM
GI50 (SF-539 CNS): 1700 nM
TGI (SF-539 CNS): 3.21 µM

N#Cc1ccc(Nc2nc3nc[nH]c3c(=O)[nH]2)cc1
TGI (DU-145 prostate): > 100 µM
TGI (MDA-MB-435): > 100 µM
TGI (T-47D breast): > 100 µM
TGI (LOX IMVI melanoma): > 100 µM
TGI (HL-60(TB) leukemia): > 100 µM
TGI (HS 578T breast): > 100 µM
TGI (MALME-3M melanoma): > 100 µM
TGI (SK-MEL-28 melanoma): > 100 µM
TGI (SF-539 CNS): > 100 µM
TGI (PC-3 prostate): > 100 µM

CCCCN(CCCC)CC(=O)c1ccc2cc(Cl)c3ccccc3c2c1
TGI (DU-145 prostate): > 100 µM
TGI (MDA-MB-435): > 100 µM
TGI (T-47D breast): 76.6 µM
TGI (LOX IMVI melanoma): > 100 µM
TGI (HL-60(TB) leukemia): > 100 µM
TGI (HS 578T breast): > 100 µM
TGI (MALME-3M melanoma): > 100 µM
TGI (SF-539 CNS): > 100 µM
TGI (PC-3 prostate): > 100 µM

O=C(CCN1CCCC1)Nc1ccc2c(NCCCCc3ccccc3)c3ccccc3nc2c1
GI50 (DU-145 prostate): 1150 nM
TGI (DU-145 prostate): 2.39 µM
GI50 (MDA-MB-435): 1560 nM
TGI (MDA-MB-435): 2.95 µM
GI50 (MALME-3M melanoma): 1720 nM
TGI (MALME-3M melanoma): 3.26 µM
GI50 (SK-MEL-28 melanoma): 1800 nM
TGI (SK-MEL-28 melanoma): 3.24 µM
GI50 (SF-539 CNS): 1440 nM
TGI (SF-539 CNS): 2.84 µM
GI50 (PC-3 prostate): 723 nM
TGI (PC-3 prostate): 2.09 µM

CCOC(=O)c1c(NC(=S)NCc2ccccc2)sc2c1CCN(C)C2
TGI (DU-145 prostate): > 100 µM
TGI (T-47D breast): > 100 µM
TGI (HL-60(TB) leukemia): 36.2 µM
TGI (HS 578T breast): > 100 µM
TGI (SF-539 CNS): > 100 µM
TGI (PC-3 prostate): > 100 µM
